Measured values as given in patent US3944557A, “Pyridinium salts” (Commonwealth Scientific & Industrial Research Organization, priority 1973, dated 1976).

How the values were obtained:
Rhizoctonia solani = assay: Infection of cotton seedlings by Rh. solani (soil application); assay type: in vivo; details: Table 7, 16 kg/ha, read-out: Protection of cotton seedlings from infection by Rh. solani
Excerpt: Infection of cotton seedlings by Rh. solani
100% protection at 16 kg/ha (soil application) ++
50% protection at 16 kg/ha (soil application) +

Phytophthora cinnamomi = assay: Protection of lupin seedlings from infection by P. cinnamomi; assay type: in vivo; details: Table 7
Excerpt: Protection of lupin seedlings from infection by […]

Monolinia fructicola = assay: Inhibition of spore germination of M. fructicola; assay type: cell-based; details: Monilinia fructicola; Table 7; read-out: 50% inhibition of spore germination (Monolinia fructicola spore germination)
Excerpt: 50% inhibition of spore germination of M. fructicola

Fusarium oxysporum = assay: Infection of tomato seedlings by F. oxysporum (soil application); assay type: in vivo; details: read-out: Protection of tomato seedlings from infection by F. oxysporum
Excerpt: Infection of tomato seedlings by F. oxysporum
100% protection 8 kg/ha (soil application) ++
50% protection at 8 kg/ha (soil application) +

Row | SMILES | pest or weed control at 16000 g/ha (Rhizoctonia solani) [%] | minimal effective concentration (Phytophthora cinnamomi) [µg/mL] | IC50 (Monolinia fructicola) [µg/mL] | pest or weed control at 8000 g/ha (Fusarium oxysporum) [%]
1 | CCCCNc1cc(N)[n+](CCCC)c(NCc2ccco2)c1C#N [Compound 36] | 50 | 2 to 8 | 5 to 50 | –
2 | CCCCCCCNc1cc(N)[n+](CCCCCCC)c(Cl)c1C#N [Compound 13] | – | ≤ 2 | ≤ 5 | 50
3 | CCCCCCNc1cc(N)[n+](CCCCCC)c(NCCCC)c1C#N.[Cl-] [Compound 42, 2-amino-6-n-butylamino-5-cyano-1-n-hexyl-4-n-hexylamino pyridinium chloride] | – | ≤ 2 | ≤ 5 | –
4 | N#Cc1c(NCc2ccccc2)cc(N)[n+](Cc2ccccc2)c1Cl [Compound 17] | – | 2 to 8 | 5 to 50 | 50
5 | CC(C)Nc1cc(N)[n+](C(C)C)c(S(=O)(=O)[O-])c1C#N [Compound 59] | 100 | > 8 | – | –
6 | CCCCCCNc1c(Br)c(N)[n+](CCCCCC)c(Cl)c1C#N [Compound 67] | – | 2 to 8 | ≤ 5 | 50
7 | CNc1cc(N)[n+](C)c(NCc2ccco2)c1C#N [Compound 23] | – | > 8 | – | 100
8 | CCCCCCCCNc1cc(N)[n+](CCCCCCCC)c(Cl)c1C#N.[Cl-] [Compound 14, 2-amino-6-chloro-5-cyano-1-n-octyl-4-n-octylamino pyridinium chloride] | 100 | ≤ 2 | ≤ 5 | 50
9 | CCCCCCCCNc1cc(N)[n+](CCCCCCCC)c(N)c1C#N [Compound 46] | 50 | ≤ 2 | ≤ 5 | –
10 | CCCCCCNc1cc(N)[n+](CCCCCC)c(Sc2ccccc2)c1C#N.[Cl-] [Compound 78, 2-amino-5-cyano-1-n-hexyl-4-n-hexylamino-6-phenylmercapto pyridinium chloride] | 50 | ≤ 2 | ≤ 5 | –
11 | CCCCCCCCCCCCNc1c(C#N)c(NC)cc(N)[n+]1C [Compound 27] | 100 | 30 | – | –
12 | CCCCCCCCNc1c(C#N)c(NCCCCCC)cc(N)[n+]1CCCCCC [Compound 44] | – | ≤ 2 | ≤ 5 | 50
